{
  "source": "patent US20050222122A1",
  "about": "“Statin therapy for enhancing cognitive maintenance” (priority 2002, published 2005)",
  "key": {"[1]": {"system": "patients with Alzheimer's disease", "experiment": "Change in ADAS-cog/11 in combined double-blind, placebo-controlled galantamine clinical trials (5 to 6 months)", "assay_type": "in vivo, human", "conditions": "combined trial data, galantamine 24 mg daily, controls for study and AD severity", "experimental": "The objective was to evaluate the effect of statins on cognitive maintenance in patients with Alzheimer's disease during 5- and 6-month randomized clinical trials of galantamine.\nData were combined from 3 double-blind, placebo-controlled clinical trials limited to patients treated with galantamine 24 mg daily or placebo\nPatients were categorized based on galantamine status and any statin use.\nChanges in the Alzheimer's Disease Assessment Scale-cognitive subscale with standard 11 items (ADAS-cog/11) using last observation carried forward (LOCF) were assessed\nComparisons between patient subgroups were made controlling for relevant confounding factors."}, "serum β-amyloid": {"system": "serum β-amyloid", "conditions": "patients with high low-density lipoprotein cholesterol; lovastatin 40 or 60 mg; cited from earlier work"}},
  "data": [
    {"smiles": "COc1ccc2c3c1O[C@H]1C[C@@H](O)C=C[C@@]31CCN(C)C2", "note": "[GAL 24 only, (4aS,6R,8aS)-4a, 5,9,10,11,12-hexahydro-3-methoxy-1 1-methyl-6H-benzofuro[3a,3,2-ef][2]benzazepin-6-ol]", "values": [
      {"measurement": "ADAS-Cog change score, LS Means (SE)", "setting": "[1]; Intent-to-treat analysis (LOCF)", "result": "−0.88 (0.25)"},
      {"measurement": "ADAS-Cog change score, LS Means (SE)", "setting": "[1]; Intent-to-treat analysis (LOCF), listed as GAL-only", "result": "−0.88"},
      {"measurement": "ADAS-Cog change score, LS Means (SE)", "setting": "[1]; Observed cases", "result": "−0.61 (0.28)"}
    ]},
    {"smiles": "CC[C@H](C)C(=O)O[C@H]1C[C@@H](C)C=C2C=C[C@H](C)[C@H](CC[C@@H]3C[C@@H](O)CC(=O)O3)[C@H]21", "note": "[lovastatin]", "values": [
      {"measurement": "serum β-amyloid", "setting": "serum β-amyloid", "result": "decreased serum β-amyloid"}
    ]}
  ]
}
